According to patent publication US20170224654A1, “PHARMACEUTICAL COMPOSITIONS AND METHODS FOR COUNTERING CHEMOTHERAPY INDUCED CARDIOTOXICITY” (Stem Cell Theranostics, Inc., priority 2016, published 2017):
pEC50, pIC50: −log10 of the molar value.

Assays:
[1] = tested on: Human iPSC-derived cardiomyocytes; assay: Cytotoxicity of MYR analogs to cardiomyocytes; conditions: at or below 100 μM as stated
[2] = tested on: TOPOII enzymes (TOPOIIα and TOPOIIβ); assay: kDNA decatenation assay, TOPOIIα and TOPOIIβ jointly; format: biochemical; conditions: discussion of Table 1
Protocol: 200 ng of kinetoplast DNA (kDNA) was incubated with one enzymatic unit of TOPOIIα or TOPOIIβ enzyme (Inspiralis) and with various concentrations of MYR or DEX at 37° C. for 30 min. The reaction was then separated on 1% agarose gel for visualization of decatenated DNA (bottom band). The efficiency of catalytic inhibition was quantified by measuring the relative intensity of the band.

[3] = tested on: Doxorubicin treated human iPSC-derived cardiomyocytes; assay: iPSC-CM protection of MYR analogs against doxorubicin; format: cell-based; conditions: discussion of Table 1
[4] = tested on: induced pluripotent stem cell-derived cardiomyocytes; assay: Acute toxicity on electrophysiology (MEA beat period, field potential duration); format: cell-based; conditions: for acute drug toxicity (beating): higher concentrations; for beat period or field potential duration, as compared to control samples: lower drug concentration, at least 20 minutes
Protocol: Samples were either mock-treated with 0.1% DMSO, or treated with increasing concentrations of the indicated drug for at least 20 minutes. Cardiomyocytes were treated with the hERG potassium channel blocker E4031 as a control. Following treatment, the beat period and field potential duration (FPD) were measured in each sample using the MEA.

TOPOIIα = biological target: T1, TOPOIIα (Homo sapiens, UniProt P11388); assay: kDNA decatenation assay; format: biochemical; conditions: 37° C., 30 min, n=3; read-out: IC50 of TOPOIIα enzyme activity
T1 construct: purchased Inspiralis

[5] = tested on: induced pluripotent stem cell-derived cardiomyocytes; assay: Long term toxicity on electrophysiology (active electrodes, MEA); format: cell-based; conditions: for number of active electrodes relative to the mock-treated sample (in words): various concentrations, at least 5 days
Protocol: Samples were either mock-treated with 0.1% DMSO, or treated with various concentrations of the indicated drug. Following treatment, the percentage of active electrodes in each sample was measured for at least 5 days. Percentage of active electrodes was quantified and graphed in a time course.

[6] = tested on: MDA-MB-231 breast cancer cells; assay: Cell viability with doxorubicin (CellTiter-Glo); format: cell-based; conditions: co-treated with increasing concentrations of doxorubicin, 72 hours
A549 cells (lung cancer) = assay: Cell viability with doxorubicin (CellTiter-Glo); format: cell-based; conditions: co-treated with increasing concentrations of doxorubicin, 72 hours
Protocol: A549 cells (lung cancer) were cultured for 1 day before performing experiments. […] XLFit was used for curve fitting.

[7] = tested on: topoisomerase IIβ protein in human iPSC-derived cardiomyocytes; assay: TOPOIIβ protein level (immunostaining), 24 hours; format: cell-based; conditions: 100 μM
Protocol: To further distinguish molecular mechanisms of MYR from those of DEX and also to determine whether the inhibitory effects of MYR on TOPOII observed in the decatenation assays above is due to degradation of TOPOII proteins, human iPSC-derived cardiomyocytes were treated with DMSO, DEX (100 μM), or MYR (100 μM) for 24 hours, and immunostained with antibody against topoisomerase IIβ (BD Biosciences).
Cells were imaged using INCell Analyzer2200 (GE) and […] protein levels were quantified. Student T-Test (unpaired, two-tailed) was used to determine the significance of the difference.

[8] = tested on: human induced pluripotent stem cell-derived cardiomyocytes; assay: Long-term mitochondrial health (TMRM), 7 days; format: cell-based; conditions: 1 μM doxorubicin alone or with dexrazoxane or vitexin
Protocol: Following treatment, the samples were incubated with a tetramethylrhodamine methyl ester (TMRM) dye to indicate mitochondrial health. […] Representative images are presented for each sample, wherein loss of TMRM signal represents mitochondrial toxicity.

TOPOIIβ = biological target: T2, TOPOIIβ (Homo sapiens, UniProt Q02880); assay: kDNA decatenation assay; format: biochemical; conditions: 37° C., 30 min, n=3; read-out: IC50 of TOPOIIβ enzyme activity
T2 construct: purchased Inspiralis

in vitro = conditions: human
C57BL/6 mice = assay: Acute anthracycline-induced cardiotoxicity model, echocardiography; format: in vivo; conditions: Doxorubicin 20 mg/kg single intraperitoneal injection, day 5
From the text: An acute anthracycline-induced cardiotoxicity model was established in 9-10 week old C57BL/6 mice obtained from The Jackson Laboratory. […] General health of the animals was monitored on a daily basis throughout the course of the study. […] Left ventricular (LV) M-mode images were obtained in the two-dimensional short axis view close to the papillary muscles. Tracings of endocardial tissue during systole and diastole were made off line.

[9] = tested on: human induced pluripotent stem cell-derived cardiomyocytes; assay: Electrophysiological activity with doxorubicin (active electrodes, MEA); format: cell-based; conditions: 1 μM doxorubicin, in the absence of vitexin
Protocol: Samples were either mock-treated with 0.1% DMSO, treated with 1 μM doxorubicin, or co-treated with 1 μM doxorubicin and various concentrations of vitexin (e.g., 11.6 μM, 37 μM, or 116 μM). Following treatment, the percentage of active electrodes in each sample was measured for 72 hours. Percentage of active electrodes was quantified and graphed in a time course (FIG. 28A). The average number of active electrodes per well was quantified and graphed at 30 hours after the treatment (FIG. 28B, n=6, standard deviation is shown as error bars).

TOPOIIβ mRNA expression = assay: mRNA expression level in cardiomyocytes; format: cell-based; conditions: agent alone; DOX at 24 and 48 hours
TOPOIIα mRNA expression = assay: mRNA expression level in cardiomyocytes; format: cell-based; conditions: DOX alone, over time
[10] = tested on: Human iPSC-derived cardiomyocytes; assay: DOX-induced contractility dysfunction (Pulse videos), 48 hours; format: cell-based; conditions: DOX 0.5 μM
patient = assay: Patient treatment examples (echocardiogram / electrocardiogram); format: in vivo, human; conditions: doxorubicin (5 mg/mL) given with the protective agent
Protocol: A patient, with a history of heart disease, is diagnosed with breast cancer. Due to an increased risk for heart failure, the patient is unable to receive the standard treatment regimen of doxorubicin, which is known to induce cardiotoxicity. Instead, the caregiver administers a co-formulation of doxorubicin (10 mg) and vitexin (100 mg). An echocardiogram is performed and blood flow rate is measured to determine if the therapy has a cardiotoxic effect in the patient.
A patient is diagnosed with liver cancer. […] The patient presents with a 20 ms QT prolongation. […] The patient is able to continue receiving treatment over several weeks after which a tissue biopsy is performed to confirm the liver cancer has been eradicated.
A patient is diagnosed with stage II lung cancer, and presents with bradycardia. Due to an increased risk for heart failure, the patient is unable to receive the standard treatment regimen of doxorubicin, which is known to affect cardiac contraction and induce bradycardia. Instead, the caregiver administers a co-formulation of doxorubicin (10 mg) and myricetin (100 mg). An electrocardiogram is used to monitor the patient's heart rate. […] The lung cancer is down-staged to stage 1, and the cancer is successfully removed with surgery.
A patient is diagnosed with stage II lung cancer, and presents with bradycardia. Due to an increased risk for heart failure, the patient is unable to receive the standard treatment regimen of doxorubicin, which is known to affect cardiac contraction and induce bradycardia. Instead, the caregiver administers myricetin (100 mg) 24 hours before administration of doxorubicin (10 mg). An electrocardiogram is used to monitor the patient's heart rate. […] The lung cancer is down-staged to stage 1, and the cancer is successfully removed with surgery.

T1 sequence (P11388 whole entry): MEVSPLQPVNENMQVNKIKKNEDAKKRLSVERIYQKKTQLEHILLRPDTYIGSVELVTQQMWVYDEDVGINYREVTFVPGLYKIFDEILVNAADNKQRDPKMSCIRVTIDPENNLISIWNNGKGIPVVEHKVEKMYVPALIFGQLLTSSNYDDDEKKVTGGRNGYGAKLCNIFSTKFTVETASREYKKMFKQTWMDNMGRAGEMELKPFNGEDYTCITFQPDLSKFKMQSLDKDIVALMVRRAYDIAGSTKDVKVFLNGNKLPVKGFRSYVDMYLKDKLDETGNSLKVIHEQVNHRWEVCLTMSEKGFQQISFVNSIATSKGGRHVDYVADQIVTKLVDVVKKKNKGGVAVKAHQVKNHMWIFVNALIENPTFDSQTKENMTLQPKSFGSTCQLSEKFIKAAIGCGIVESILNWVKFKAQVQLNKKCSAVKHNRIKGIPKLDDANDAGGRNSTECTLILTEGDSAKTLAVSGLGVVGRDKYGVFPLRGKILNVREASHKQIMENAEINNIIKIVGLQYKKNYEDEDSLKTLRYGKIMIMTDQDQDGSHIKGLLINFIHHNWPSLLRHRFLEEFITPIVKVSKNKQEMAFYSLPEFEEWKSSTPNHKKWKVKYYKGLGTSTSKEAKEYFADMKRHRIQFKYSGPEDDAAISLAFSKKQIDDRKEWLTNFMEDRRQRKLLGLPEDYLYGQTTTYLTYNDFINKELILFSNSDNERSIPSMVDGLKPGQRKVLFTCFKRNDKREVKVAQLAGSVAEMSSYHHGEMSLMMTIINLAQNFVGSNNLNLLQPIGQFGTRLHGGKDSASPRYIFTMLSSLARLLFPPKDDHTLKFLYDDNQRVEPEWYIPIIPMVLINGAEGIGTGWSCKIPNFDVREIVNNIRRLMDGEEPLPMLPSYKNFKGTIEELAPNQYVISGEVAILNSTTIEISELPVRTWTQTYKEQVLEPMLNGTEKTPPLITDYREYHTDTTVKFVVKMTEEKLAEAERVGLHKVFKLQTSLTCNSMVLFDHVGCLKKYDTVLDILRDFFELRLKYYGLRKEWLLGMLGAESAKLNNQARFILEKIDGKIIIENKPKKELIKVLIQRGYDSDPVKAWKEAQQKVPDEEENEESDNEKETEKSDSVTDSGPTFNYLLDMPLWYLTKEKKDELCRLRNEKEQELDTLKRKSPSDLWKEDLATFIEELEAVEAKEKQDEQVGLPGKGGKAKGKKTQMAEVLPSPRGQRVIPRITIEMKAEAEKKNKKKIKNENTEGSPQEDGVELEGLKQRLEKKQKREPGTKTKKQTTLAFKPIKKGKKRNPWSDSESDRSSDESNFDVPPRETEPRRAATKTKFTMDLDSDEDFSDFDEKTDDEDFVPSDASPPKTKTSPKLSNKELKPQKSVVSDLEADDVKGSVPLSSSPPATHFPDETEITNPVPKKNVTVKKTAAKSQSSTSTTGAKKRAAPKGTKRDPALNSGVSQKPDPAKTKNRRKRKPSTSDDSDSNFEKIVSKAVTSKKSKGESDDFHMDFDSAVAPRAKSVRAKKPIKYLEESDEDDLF
T2 sequence (Q02880 whole entry): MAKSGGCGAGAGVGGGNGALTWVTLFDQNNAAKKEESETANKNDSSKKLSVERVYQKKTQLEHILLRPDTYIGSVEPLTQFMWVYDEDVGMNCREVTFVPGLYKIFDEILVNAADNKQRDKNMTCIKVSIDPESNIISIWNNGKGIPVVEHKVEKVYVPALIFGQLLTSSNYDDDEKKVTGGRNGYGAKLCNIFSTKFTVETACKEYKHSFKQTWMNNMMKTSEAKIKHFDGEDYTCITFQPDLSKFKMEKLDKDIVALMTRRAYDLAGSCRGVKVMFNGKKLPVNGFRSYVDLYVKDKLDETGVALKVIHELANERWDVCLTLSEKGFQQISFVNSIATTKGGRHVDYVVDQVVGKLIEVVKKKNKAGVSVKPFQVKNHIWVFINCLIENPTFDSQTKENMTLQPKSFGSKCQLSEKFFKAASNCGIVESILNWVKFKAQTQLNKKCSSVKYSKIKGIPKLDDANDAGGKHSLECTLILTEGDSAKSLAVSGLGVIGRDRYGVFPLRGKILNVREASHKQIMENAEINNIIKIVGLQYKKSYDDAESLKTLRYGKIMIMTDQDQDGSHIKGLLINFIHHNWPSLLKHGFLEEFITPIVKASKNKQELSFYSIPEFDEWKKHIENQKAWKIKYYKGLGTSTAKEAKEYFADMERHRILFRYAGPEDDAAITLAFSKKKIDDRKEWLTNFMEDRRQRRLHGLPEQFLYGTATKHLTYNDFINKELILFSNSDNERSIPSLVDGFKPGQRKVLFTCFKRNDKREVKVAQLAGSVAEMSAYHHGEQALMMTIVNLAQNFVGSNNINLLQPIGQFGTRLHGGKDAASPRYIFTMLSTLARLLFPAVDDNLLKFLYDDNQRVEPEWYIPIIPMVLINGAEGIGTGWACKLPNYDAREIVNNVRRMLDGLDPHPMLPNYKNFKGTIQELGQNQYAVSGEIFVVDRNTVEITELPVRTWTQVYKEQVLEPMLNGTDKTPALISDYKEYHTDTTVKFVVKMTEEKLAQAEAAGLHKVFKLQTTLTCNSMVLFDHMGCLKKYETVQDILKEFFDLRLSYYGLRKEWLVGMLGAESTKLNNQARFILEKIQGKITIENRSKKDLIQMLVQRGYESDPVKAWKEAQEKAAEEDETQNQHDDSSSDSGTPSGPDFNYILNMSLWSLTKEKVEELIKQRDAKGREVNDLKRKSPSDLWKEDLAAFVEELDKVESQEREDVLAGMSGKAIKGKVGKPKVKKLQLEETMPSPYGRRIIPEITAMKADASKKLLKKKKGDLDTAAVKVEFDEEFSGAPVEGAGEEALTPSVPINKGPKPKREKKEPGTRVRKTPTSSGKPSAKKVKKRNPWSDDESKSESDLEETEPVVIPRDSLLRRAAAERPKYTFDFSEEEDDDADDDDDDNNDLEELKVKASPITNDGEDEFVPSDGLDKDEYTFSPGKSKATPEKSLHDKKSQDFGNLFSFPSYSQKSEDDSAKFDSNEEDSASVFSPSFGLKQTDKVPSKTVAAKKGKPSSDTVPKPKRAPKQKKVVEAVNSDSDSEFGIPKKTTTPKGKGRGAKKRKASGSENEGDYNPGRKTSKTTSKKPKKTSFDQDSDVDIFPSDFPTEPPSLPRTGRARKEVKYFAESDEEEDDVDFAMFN

SMILES: O=c1ccoc2cc(O)ccc12 [Compound 7-hydroxy-4-chromone, 7-hydroxy-4-chromone]
- cytotoxicity / toxic effects to cardiomyocytes (in words) [1]: high level of cytotoxicity at 100 μM
- TOPOII (TOPOIIα and TOPOIIβ) inhibition (in words) [2]: Nor did either compound confer TOPOIIβ or a inhibition
- cardioprotection (in words) [3]: no positive effect in cardiac protection

SMILES: C[C@H](CCC(=O)O)[C@H]1CC[C@H]2[C@@H]3[C@H](O)C[C@@H]4C[C@H](O)CC[C@]4(C)[C@H]3CC[C@]12C [chenodeoxycholic acid]
- acute drug toxicity (beating) [4]: beating cessation
- beat period or field potential duration, as compared to control samples [4]: no appreciable difference

SMILES: O=C1C[C@@H](c2ccc(O)cc2)Oc2cc(O)cc(O)c21 [naringenin]
- acute drug toxicity (beating) [4]: beating cessation
- beat period or field potential duration, as compared to control samples [4]: no appreciable difference

SMILES: O=c1c(O)c(-c2ccc(O)c(O)c2)oc2cc(O)cc(O)c12 [Compound 4, 3,5,7,3′,4′-pentahydroxyflavone]
- cytotoxicity / toxic effects to cardiomyocytes (in words) [1]: high level of general cytoxicity
- TOPOII (TOPOIIα and TOPOIIβ) inhibition (in words) [2]: exhibited TOPOII inhibition
- cardioprotection (in words) [3]: conferred cardioprotection

SMILES: C[C@@H](CN1CC(=O)NC(=O)C1)N1CC(=O)NC(=O)C1 [dexrazoxane]
- beat period or field potential duration, as compared to control samples [4]: no appreciable difference
- pIC50 (TOPOIIα): 4.28
- reduction in the number of active electrodes ([5]; 500 dexrazoxane, about 2 days post-treatment): ~50%
- percentage of cell death vs doxorubicin in the absence of a protective agent [6]: no significant difference
- percentage of cell death vs doxorubicin in the absence of a protective agent (A549 cells (lung cancer)): no significant difference
- topoisomerase IIβ protein levels [7]: marked disappearance of TOPOIIβ
- mitochondrial toxicity / protection (TMRM-positive cells) [8]: increase in mitochondrial toxicity
- pIC50 (TOPOIIβ): 4.46

SMILES: COc1cc(-c2oc3cc(O)cc(O)c3c(=O)c2O)cc(O)c1O [3′-O-methylmyricetin]
- cytotoxicity / toxic effects to cardiomyocytes (in words) [1]: without showing generalized cytotoxicity
- TOPOII (TOPOIIα and TOPOIIβ) inhibition (in words) [2]: failed to inhibit TOPOII enzymes
- pEC50 ([3]; Homo sapiens, Cardiomyocyte, read-out: EC50 / potency for cardioprotection): ~4.23
- cardioprotection (in words) [3]: conferred cardioprotection

SMILES: Nc1ccc(O)c(C(=O)O)c1 [mesalamine]
- number of active electrodes relative to the mock-treated sample (in words) [5]: no observable decrease
- percentage of cell death vs doxorubicin in the absence of a protective agent [6]: no significant difference
- percentage of cell death vs doxorubicin in the absence of a protective agent (A549 cells (lung cancer)): no significant difference

SMILES: CC(=O)N[C@@H](CS)C(=O)O [N-acetyl cysteine]
- beat period or field potential duration, as compared to control samples [4]: no appreciable difference
- percentage of cell death vs doxorubicin in the absence of a protective agent [6]: no significant difference
- percentage of cell death vs doxorubicin in the absence of a protective agent (A549 cells (lung cancer)): no significant difference

SMILES: COc1cccc2c1C(=O)c1c(O)c3c(c(O)c1C2=O)C[C@@](O)(C(=O)CO)C[C@@H]3O[C@H]1C[C@H](N)[C@@H](O)[C@H](C)O1 [epirubicin]
- CC50 at 72 h (in vitro): 0.49 µM

SMILES: CC(=O)[C@]1(O)Cc2c(O)c3c(c(O)c2[C@@H](O[C@H]2C[C@H](N)[C@H](O)[C@H](C)O2)C1)C(=O)c1ccccc1C3=O [Idarubicin, idarubicin]
- CC50 at 72 h (in vitro): 0.59 µM

SMILES: O=c1c(O)c(-c2ccccc2)oc2cc(O)cc(O)c12 [3,5,7-trihydroxyflavone]
- cytotoxicity / toxic effects to cardiomyocytes (in words) [1]: generalized cytotoxicity
- TOPOII (TOPOIIα and TOPOIIβ) inhibition (in words) [2]: neither cardioprotection nor TOPOII inhibition
- cardioprotection (in words) [3]: neither cardioprotection nor TOPOII inhibition

SMILES: COc1cccc2c1C(=O)c1c(O)c3c(c(O)c1C2=O)C[C@@](O)(C(=O)CO)C[C@@H]3O[C@H]1C[C@H](N)[C@H](O)[C@H](C)O1 [doxorubicin, reference compound]
- decrease of ejection fraction (EF) (C57BL/6 mice): 19%
- decrease of fractional shortening (FS) (C57BL/6 mice): 15%
- decrease in the number of active electrodes ([9]; 24 hours): ~50%
- decrease in the number of active electrodes, relative to time zero ([9]; 30 hours): ~95%
- TOPOIIβ mRNA expression (TOPOIIβ mRNA expression): significantly repressed
- TOPOIIα mRNA expression (TOPOIIα mRNA expression): slowly repressed
- cardiomyocyte contraction [10]: induced dysfunction in cardiomyocyte contraction
- CC50 at 72 h (in vitro): 0.41 µM
- mitochondrial toxicity / protection (TMRM-positive cells) [8]: increase in mitochondrial toxicity

SMILES: C[C@@H]1O[C@@H](Oc2c(-c3cc(O)c(O)c(O)c3)oc3cc(O)cc(O)c3c2=O)[C@H](O)[C@H](O)[C@H]1O [myricitrin]
- QT prolongation (in words) (patient): no signs of QT prolongation

SMILES: Nc1c(Br)cc(Br)cc1CN[C@H]1CC[C@H](O)CC1 [ambroxol]
- beat period or field potential duration, as compared to control samples [4]: no appreciable difference
- number of active electrodes relative to the mock-treated sample (in words) [5]: no observable decrease
- percentage of cell death vs doxorubicin in the absence of a protective agent [6]: no significant difference
- percentage of cell death vs doxorubicin in the absence of a protective agent (A549 cells (lung cancer)): no significant difference

SMILES: CC(=O)N(O)CCCCCNC(=O)CCC(=O)N(O)CCCCCNC(=O)CCC(=O)N(O)CCCCCN [deferoxamine]
- beat period or field potential duration, as compared to control samples [4]: no appreciable difference
